Measured values as given in patent US10815237B2, “Antimicrobials and methods of making and using same” (BIOVERSYS AG, priority 2016, dated 2020).
pIC50: −log10 of the molar value.

Assays:
[1] = system: Chinese hamster ovary (CHO) cells; assay: cytotoxicity against CHO cell line (Cell Titer Blue); type: cell-based; settings: CHO-K1 cells, 24 hours incubation, percent cell kill
Protocol: The compounds of the present disclosure were tested for cytotoxicity against Chinese hamster ovary (CHO) cells.
The assay was performed by seeding CHO—K1 in F12K medium containing 13.33% Fetal Bovine Serum […]. 37.5 μl of cell suspension at a concentration of 9,500 cells/well was plated into each column of a 384-well black clear bottom assay plate with the exception of a negative (no cell) control column, and allowed to adhere for 2 hours. The culture media was then removed from the 175 cm^2 flask(s) and the cell monolayer washed with 10 mL of Phosphate Buffered Saline PBS. 3 mL of Cellstripper™ was then added and the flask was incubated for approximately 5 min at 37° C. The cells were dissociated by agitation and 7 mL of F 12K medium containing 10% FBS was added to the flask. A homogeneous cell suspension was obtained by trituration of the flask. The cells were counted with a hemocytometer by diluting an aliquot of the cell suspension in PBS with 0.4% trypan blue. Typically, a ratio of 100 μl cell suspension to 1800 μl PBS to 100 μl trypan blue was used.
The volume of cell suspension containing the number of cells needed to seed the plate(s) (15.2 mL containing 3.8×10^6 cells) was calculated and transferred to a 50 mL centrifuge tube with the appropriate volume of media. 37.5 μl of cells were added to each well of the 384 well plate except for the negative (no cell) control column. A cytotoxicity 100-fold dilution plate was then prepared by manually pipetting 18 μl of 100% DMSO into two columns of an empty low volume dilution plate. 2 μl of a 50 mM solution of compounds 1-23 from the translation plate were manually pipetted into the corresponding columns of the 100-fold dilution plate. 10 μl of 100% DMSO was manually pipetted into all remaining columns of the 100-fold plate.
A 4-fold cytotoxicity plate was prepared beforehand by manually pipetting 48 μl of F12K media (without DMSO and without FBS) into each well of a matrix 384 well plate. The test samples in the 100-fold dilution plate were mixed and diluted. Ten 2-fold dilutions were performed for each compound in duplicate. The 384 cannula array then transferred 2 μl to the 48 μl of media in the cytotoxicity 4-fold dilution plate. The array was then mixed and 12.5 μl of samples from the cytotoxicity 4-fold dilution plate were transferred to the 37.5 μl of cells and media. The final top concentration of samples at this point in the procedure was 50 μM with 10 subsequent 1:2 dilutions down to […]. The final DMSO concentration were 1% and the final concentration of FBS was 10%.
Cycloheximide was run as a control. Specifically, Cycloheximide was diluted to 0.1 mM from 100 mM stock […] and was added to the cytotoxicity 100-fold plate. Upon addition to the cell plate, a range of 1 μM to 1 nM of cycloheximide was run.
A column separate from the one (referred to above) that served as the negative control was used for cell control wells to which only media was added.
The plates were then incubated for 24 hours at 37° C. and 5% CO2. […] The two columns used earlier to prepare the 100-fold dilution plate by pipetting 18 μl of 100% DMSO contained the samples tested at 200 μM. After the 24 hour incubation period, the 4 μl of Cell Titer blue was added to each well using a Multichannel Matrix pipettor. The plates were returned to the incubator and incubated for an additional 5 hours. Fluorescence (530 nm excitation wavelength/590 nm emission wavelength) was measured on a Wallac Victor microplate reader.
Cell viability was assessed fluorometrically after a 5 hour incubation with resazurin (Cell Titer Blue™), which is reduced by living cells to the fluorescent resorufin.
The average fluorescence for the negative control was determined to obtain the average blank fluorescence. The average blank fluorescence was subtracted from the fluorescence values obtained for all the test agents. The resulting values are the corrected fluorescence. […]

[2] = system: Staphylococcus aureus (S. aureus) 11540 strain; assay: standard microdilution MIC, S. aureus; type: cell-based; settings: for MIC: Staphylococcus aureus
Protocol: (§1) The in vitro activity of the compounds of the present disclosure can be determined. Antimicrobial testing is typically performed to determine the minimum inhibitory concentration (MIC). Minimum inhibitory concentrations (MICs) are determined by the microdilution method in a final volume of 100 μl according to protocols outlined by The Clinical and Laboratory Standards Institute (CLSI). Performance standards for reference strains are assessed within the same experimental design to maintain quality control. See, for example, Clinical Laboratory Standards Institute: Methods for dilution antimicrobial susceptibility tests for bacteria that grow aerobically M7-A8. Approved Standard-Eighth Edition. Wayne, Pa.: CLSI; December 2008; and Clinical Laboratory Standards Institute: Performance Standards for Antimicrobial Susceptibility Testing M100-S20; Approved Standard-Twentieth Edition. Wayne, Pa.: CLSI; June 2010.
(§2) The compounds of the present disclosure were tested for antimicrobial activity. The Compounds 1-23 were run against Eschericia coli (E. coli) strain ATCC25922 and against Staphylococcus aureus (S. aureus) 11540 strain using a standard microdilution assay to determine minimum inhibitory concentrations (MICs). […] It will be recognized by one skilled in the art that the compounds can be assessed against other bacterial organisms and that the presentation of data for activity against Eschericia coli and Staphylococcus aureus are illustrative and in no way is intended to limit the scope of the present disclosure. The compounds of the present disclosure can be assayed against a range of other microorganisms depending upon the performance activity desired to be gathered. Furthermore, the “+” and “−” representation and the selection of a cutoff value of 16 micrograms/mL is also illustrative and in no way is intended to limit the scope of the present disclosure.

[3] = system: Eschericia coli (E. coli) strain ATCC25922; assay: standard microdilution MIC, E. coli; type: cell-based, Escherichia coli; settings: for MIC: Escherichia coli
Protocol: as §1, §2

| SMILES | pIC50 ([1]; Cricetulus griseus, 24 h) | MIC [2] [µg/mL] | MIC [3] [µg/mL] | pIC50 [1] | MIC S. aureus [2] | MIC E.coli [3] |
| --- | --- | --- | --- | --- | --- | --- |
| C=C[C@@H](CCNC(=N)CN1CCOCC1)NCc1ccc(-n2cc3cc(-c4cc(CCC[C@H](C)N)cc(Cl)c4F)[nH]c3nc2=O)cc1 [Compound 1] | < 4.00 |  |  |  |  |  |
| C=C[C@H](CCNC(=N)CN1CCSCC1)NCc1ccc(-n2cc3cc(-c4cc(CCC[C@H](C)N)cc(Cl)c4F)[nH]c3nc2=O)cc1 [Compound 3] | < 4.00 | ≤ 16 | ≤ 16 |  |  |  |
| C[C@H](N)CCCc1cc(Cl)c(F)c(-c2cc3cn(-c4ccc(CN[C@@H](CO)CCNC(=N)CN5CCSCC5)cc4)c(=O)nc3[nH]2)c1 [Compound 4] | < 4.00 | ≤ 16 | ≤ 16 |  |  |  |
| C=C[C@@H](CCNC(=N)CN1CC[C@H](F)C1)NCc1ccc(-n2cc3cc(-c4cc(CCC[C@H](C)N)cc(Cl)c4F)[nH]c3nc2=O)cc1 [Compound 5] | < 4.00 | ≤ 16 | ≤ 16 |  |  |  |
| C=C[C@@H](CCNC(=N)CN1CCOCC1)NCc1ccc(-n2cc3cc(-c4cc(CCC[C@H](C)N)cc(Cl)c4F)[nH]c3nc2=O)cc1 [Compound 6] |  | ≤ 16 | ≤ 16 |  |  |  |
| C=C[C@@H](CCNC(=N)CN1CCSCC1)NCc1ccc(-n2cc3cc(-c4cc(CCC[C@H](C)N)cc(Cl)c4F)[nH]c3nc2=O)cc1 [Compound 7] | < 4.00 | ≤ 16 | ≤ 16 |  |  |  |
| C[C@H](N)CCCc1cc(Cl)c(F)c(-c2cc3cn(-c4ccc([C@H](C)NCCCNC(=N)CN)cc4)c(=O)nc3[nH]2)c1 [Compound 9] | < 4.00 | ≤ 16 | ≤ 16 |  |  |  |
| CSc1cc(-n2cc3cc(-c4cc(CCC[C@H](C)N)cc(Cl)c4F)[nH]c3nc2=O)ccc1[C@@H]1CCC[C@@H](CCNC(=N)CN)N1 [Compound 10] | < 4.00 | ≤ 16 | ≤ 16 |  |  |  |
| COC[C@H](N)CCCc1cc(OC(F)(F)F)c(F)c(-c2cc3cn(-c4ccc([C@@H]5CCC[C@@H](CCNC(=N)CN)N5)cc4)c(=O)nc3[nH]2)c1 [Compound 11] | < 4.00 | ≤ 16 | ≤ 16 |  |  |  |
| N=C(CN)NCC[C@@H]1CCC[C@@H](c2ccc(-n3cc4cc(-c5cc(CCC[C@@H](N)C6CC6)cc(Cl)c5F)[nH]c4nc3=O)cc2)N1 [Compound 12] | < 4.00 | ≤ 16 | ≤ 16 |  |  |  |
| C[C@H](N)CCCc1cc(Cl)c(F)c(-c2cc3cn(-c4ccc([C@@H]5CCC[C@@H](CCNC(=N)CN)N5)c(F)c4)c(=O)nc3[nH]2)c1 [Compound 13] | < 4.00 | ≤ 16 | ≤ 16 |  |  |  |
| C[C@H](N)CCCc1cc(Cl)c(F)c(-c2cc3cn(-c4ccc([C@@H]5CCC[C@@H](CCNC(=N)CN)N5)cc4)c(=O)nc3[nH]2)c1 [Compound 14] |  |  |  | < 4.00 | + (the compound has an MIC value of 16 micrograms/mL or less) | + (the compound has an MIC value of 16 micrograms/mL or less) |
| C[C@H](N)CCCc1cc(Cl)c(F)c(-c2cc3cn(-c4cc(F)c([C@@H]5CCC[C@@H](CCNC(=N)CN)N5)c(F)c4)c(=O)nc3[nH]2)c1 [Compound 15] | < 4.00 | ≤ 16 | ≤ 16 |  |  |  |
| N=C(CN)NCC[C@@H]1CCC[C@@H](c2ccc(-n3cc4cc(-c5cc(CCC[C@@H](N)CO)cc(Cl)c5F)[nH]c4nc3=O)cc2)N1 [Compound 16] | 4.29 | ≤ 16 | ≤ 16 |  |  |  |
| C[C@H](N)CCCc1cc(-c2cc3cn(-c4ccc([C@@H]5CCC[C@@H](CCNC(=N)CN)N5)cc4)c(=O)nc3[nH]2)cc(C(F)(F)F)c1 [Compound 17] | < 4.00 | ≤ 16 | ≤ 16 |  |  |  |
| CN=C(CN)NCC[C@@H]1CCC[C@@H](c2ccc(-n3cc4cc(-c5cc(CCC[C@H](C)N)cc(Cl)c5F)[nH]c4nc3=O)cc2)N1 [Compound 18] | < 4.00 | ≤ 16 | ≤ 16 |  |  |  |
| CSC[C@H](N)CCCc1cc(Cl)c(F)c(-c2cc3cn(-c4ccc([C@@H]5CCC[C@@H](CCNC(=N)CN)N5)cc4)c(=O)nc3[nH]2)c1 [Compound 19] | < 4.00 | ≤ 16 | ≤ 16 |  |  |  |
